Measurements: patent US8440638B2, “Compositions and methods for modulating calcium flux, glucose homeostasis and apoptosis” (Wisconsin Alumni Research Foundation, priority 2004, dated 2013)

Experiments:
CRI-G1 cells = assay: Cell viability assay (calcein fluorescence), CRI-G1 cells; type: cell-based, rat; conditions: 0-40 μM puromycin, 16 h
Description: FIG. 4 a) OAADPr gates the endogenous TRPM2 channel in CRI-G1 cells. Left panel: Evolution of currents in CRI-G1 cells in the absence (grey squares) or presence (black circles) of OAADPr (120-250 μM). Shown are average leak subtracted currents from n=3 cells for each condition. Right panel: Representative leak subtracted whole cell I/V curves for peak currents observed in the absence (grey line) and presence (black line) of OAADPr. For the above measurements, CRI-G1 cells were maintained in the whole cell patch clamp configuration as previously described for HEK-293 cells (44). b) Puromycin leads to cell death in CRI-G1 cells. CRI-G1 cells were treated with 0-40 μM puromycin for 16 h. Cell viability was assessed by measuring fluorescence of calcein in live cells. Data obtained from 4 independent experiments were plotted as a percent change in fluorescence compared to those of untreated cells set at a 100%. Error bars indicate the standard deviation from the mean. (Inset) Nicotinamide rescues puromycin-induced death in CRI-G1 cells. […] Cell viability was assessed 16 h later as described above. […] Calcein is retained in living, but not dead cells, where it undergoes catalytic conversion into a fluorescent compound Fluorescence in each well was measured in a microplate reader using excitation and emission filters at 485/530 nm, respectively.

[1] = test system: nuclear acetyltransferase; assay: Nuclear OAADPr acetyltransferase (OAADPr-metabolizing) activity in HEK-293 nuclear extract; type: biochemical; conditions: 100 μM puromycin, 60 min
Description: Shown is the development of whole cell currents over time in TRPM2-expressing HEK-293 cells. Bath solution was standard ringer's, and pipette solution was Cs-based and included 10 mM EGTA to buffer intracellular Ca^2+ to 10 nM. The patch pipette contained various concentrations of (FIG. 1a) ADPr, (FIG. 1b) OAADPr (FIG. 1c) OAADPr and puromycin as indicated in the figure. FIG. 1d.) Cytoplasmic OAADPr esterase activity is inhibited by puromycin. 200 μM O-[^3H]AADPr and 0-100 μM puromycin were added to cytoplasmic HEK-293 extract for 30 min. Percent hydrolysis of O-[^3H]AADPr to [^3H]acetate was measured as described hereinbelow. FIG. 1e.) Nuclear OAADPr acetyltransferase activity is not inhibited by puromycin. HEK-293 nuclear extract was incubated with 200 μM O-[^3H]AADPr in the presence or absence of 100 μM puromycin for 60 min. The reactions were quenched and resolved by HPLC. The radioactivity in collected fractions was determined by liquid scintillation counting. FIGS. 1f-g.) In vivo detection of OAADPr. […]
Cytoplasmic and nuclear extracts were prepared from HEK-293 cells as previously described (22). […] Aliquots of the supernatant containing [^3H]acetate were removed and analyzed by liquid scintillation counting. […] Radioactivity in each elution fraction was measured by liquid scintillation counting.

TRPM2 channel = molecular target: T1, TRPM2 channel (Homo sapiens, UniProt O94759); assay: Whole cell patch clamp, TRPM2 channel gating in tet-induced TRPM2-expressing HEK-293 cells; type: cell-based
T1 construct: expressed in transfected cells; host or cells: tetracycline-inducible HEK-293
T1 sequence (O94759 whole entry): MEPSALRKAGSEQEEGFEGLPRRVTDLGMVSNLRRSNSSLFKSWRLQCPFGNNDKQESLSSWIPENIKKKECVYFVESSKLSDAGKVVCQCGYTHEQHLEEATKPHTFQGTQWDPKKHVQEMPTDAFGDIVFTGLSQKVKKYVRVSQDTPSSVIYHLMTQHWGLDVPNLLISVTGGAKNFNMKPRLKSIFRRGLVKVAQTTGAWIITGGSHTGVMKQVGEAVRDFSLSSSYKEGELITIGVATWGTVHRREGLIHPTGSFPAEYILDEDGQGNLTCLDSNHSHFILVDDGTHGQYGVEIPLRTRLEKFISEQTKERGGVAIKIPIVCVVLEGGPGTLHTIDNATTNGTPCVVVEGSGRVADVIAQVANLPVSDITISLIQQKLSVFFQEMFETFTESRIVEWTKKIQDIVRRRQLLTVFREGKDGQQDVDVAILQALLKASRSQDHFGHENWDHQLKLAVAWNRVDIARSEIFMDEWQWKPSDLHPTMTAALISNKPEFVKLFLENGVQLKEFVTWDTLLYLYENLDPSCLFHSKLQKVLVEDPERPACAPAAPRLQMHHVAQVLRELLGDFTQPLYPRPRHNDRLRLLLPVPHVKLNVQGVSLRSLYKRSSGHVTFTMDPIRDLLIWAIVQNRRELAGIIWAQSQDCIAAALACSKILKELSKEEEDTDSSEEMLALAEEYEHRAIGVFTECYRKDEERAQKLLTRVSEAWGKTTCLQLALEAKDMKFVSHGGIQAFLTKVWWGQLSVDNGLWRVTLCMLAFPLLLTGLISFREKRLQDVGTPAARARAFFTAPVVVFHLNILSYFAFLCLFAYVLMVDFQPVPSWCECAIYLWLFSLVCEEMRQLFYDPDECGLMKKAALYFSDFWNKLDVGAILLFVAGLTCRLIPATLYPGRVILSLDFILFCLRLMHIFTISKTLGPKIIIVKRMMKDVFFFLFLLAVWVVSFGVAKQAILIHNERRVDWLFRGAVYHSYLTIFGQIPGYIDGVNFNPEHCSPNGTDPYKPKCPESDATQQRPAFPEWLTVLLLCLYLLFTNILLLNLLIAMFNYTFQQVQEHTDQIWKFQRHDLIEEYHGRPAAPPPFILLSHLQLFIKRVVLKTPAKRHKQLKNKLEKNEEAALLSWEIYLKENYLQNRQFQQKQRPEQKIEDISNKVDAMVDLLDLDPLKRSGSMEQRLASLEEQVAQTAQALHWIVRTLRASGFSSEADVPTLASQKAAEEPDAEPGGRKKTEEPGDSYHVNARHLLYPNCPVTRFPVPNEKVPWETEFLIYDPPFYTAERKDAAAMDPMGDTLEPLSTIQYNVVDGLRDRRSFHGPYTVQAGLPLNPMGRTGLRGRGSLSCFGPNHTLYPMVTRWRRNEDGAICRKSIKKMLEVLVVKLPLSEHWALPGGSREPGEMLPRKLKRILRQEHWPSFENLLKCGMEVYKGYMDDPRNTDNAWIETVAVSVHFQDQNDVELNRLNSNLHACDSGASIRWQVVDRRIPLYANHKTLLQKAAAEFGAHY
Description: Shown is the development of whole cell currents over time in TRPM2-expressing HEK-293 cells. Bath solution was standard ringer's, and pipette solution was Cs-based and included 10 mM EGTA to buffer intracellular Ca^2+ to 10 nM. The patch pipette contained various concentrations of (FIG. 1a) ADPr, (FIG. 1b) OAADPr (FIG. 1c) OAADPr and puromycin as indicated in the figure. FIG. 1d.) Cytoplasmic OAADPr esterase activity is inhibited by puromycin. 200 μM O-[^3H]AADPr and 0-100 μM puromycin were added to cytoplasmic HEK-293 extract for 30 min. Percent hydrolysis of O-[^3H]AADPr to [^3H]acetate was measured as described hereinbelow. FIG. 1e.) Nuclear OAADPr acetyltransferase activity is not inhibited by puromycin. HEK-293 nuclear extract was incubated with 200 μM O-[^3H]AADPr in the presence or absence of 100 μM puromycin for 60 min. The reactions were quenched and resolved by HPLC. The radioactivity in collected fractions was determined by liquid scintillation counting. FIGS. 1f-g.) In vivo detection of OAADPr. Mass spectrum of HEK-293 generated OAADPr (peak m/z of 602.0894; the theoretical m/z for OAADPr is 602.0895) after puromycin treatment, with authentic [^13C]-OAADPr (peak m/z of 603.0851 and isotopic distribution of 604.0878 and 605.0928) as a standard. Peak 599.3691 is from the matrix.
Patch clamp electrophysiology was performed as previously described (23). Briefly, cells were patch clamped in the whole cell configuration at 25° C. using pipettes with resistances ranging from 2-3 MOhms. Currents were recorded on an EPC9 patch clamp amplifier with automatic capacitance compensation using a protocol generating a 50 msec voltage ramp from −100 to +100 mv every two seconds at a holding potential of 0 mv (appropriately corrected for liquid junction potential). Bath solution included 150 mM NaCl, 2.8 mM KCl, 5 mM CsCl, 1 mM CaCl2, 2 mM MgCl2, and 10 mM Hepes (pH 7.2). Pipette solution included 135 mM CsGlutamate, 1 mM MgCl2, 8 mM NaCl, 10 mM Hepes (pH 7.2), and 10 mM EGTA. […]

SMILES: COc1ccc(C[C@H](N)C(=O)N[C@H]2[C@@H](O)[C@H](n3cnc4c(N(C)C)ncnc43)O[C@@H]2CO)cc1 [puromycin]
- cell death of CRI-G1 cells (CRI-G1 cells): dose-dependent death
- effect on nuclear OAADPr-metabolizing activity [1]: no effect
- effect on TRPM2 channel activity, compound alone (TRPM2 channel; 100 μM puromycin alone, data not shown): no affect
- enhancement of OAADPr gated TRPM2 channel activity (TRPM2 channel; 125-250 μM puromycin in the patch pipette with OAADPr): no significant enhancement
